Literature values as cited in US12458707B2, “Targeted delivery of immunoregulatory drugs” (The Brigham and Women's Hospital, Inc., priority 2014, dated 2025).

Test system: NOD mice
Details: 2.5 mg/kg/day every other day

SMILES: C=CC[C@@H]1/C=C(\C)C[C@H](C)C[C@H](OC)[C@H]2O[C@@](O)(C(=O)C(=O)N3CCCC[C@H]3C(=O)O[C@H](/C(C)=C/[C@@H]3CC[C@@H](O)[C@H](OC)C3)[C@H](C)[C@@H](O)CC1=O)[C@H](C)C[C@@H]2OC [TAC, Tacrolimus]
- suppression of T1D: efficiently suppress T1D
